In one assay the target is PARP1 (Homo sapiens (Human), UniProt P09874). In words: PARP1 biochemical assay.
In another assay the target is PARP2 (Homo sapiens (Human), UniProt Q9UGN5). In words: PARP2 biochemical assay. The settings on record: read-out: PARP2 IC50.
The subject of assay [1] is NCI-H1373 (human lung adenocarcinoma) cells. In words: Cell proliferation assay (CellTiter-Glo), NCI-H1373. The format is cell-based. The settings on record: 6 days, CellTiter-Glo, read-out: NCI-H1373 GI50. In general terms: In ATP-based viability assays light output follows the ATP content of the culture.
Assay [2] has as its system HARA (human lung squamous cell carcinoma) cells. The assay is described as follows: Cell proliferation assay (CellTiter-Glo), HARA. The class given is cell-based. As to conditions: 6 days, CellTiter-Glo, read-out: HARA GI50.
In a further assay the target is His-GST-PARP7 (Homo sapiens (Human), UniProt Q7Z3E1). The assay is described as follows: PARP7 biochemical assay. The settings on record: read-out: PARP7 IC50.
Assay [3] has as its system CT26 (mouse colon adenocarcinoma) cells. In words: Cell proliferation assay (CellTiter-Glo), CT26. The class given is cell-based. As to conditions: 6 days.
The next assay has as its system secreted IFN-β. The assay is described as follows: Interferon-β ELISA, CT-26 cells. The format is cell-based, mouse. How it is done:
CT-26 cells were seeded into a 6-well plate. After 24 h, the growth media was replaced, and cells were treated with inhibitors. After treatment, growth media was harvested and assayed with PBL Verikine Mouse IFN-β ELISA kit following the manufacturer protocol.
(An ELISA detects its analyte on a solid surface through an enzyme-linked reagent.)

In a further assay the test system is STING, pTBK1, pIRF3. The assay is described as follows: STING, pTBK1 and pIRF3 western blot in CT-26 cells. The format is cell-based, mouse.

These results are taken from patent US20260055079A1, “PHTHALAZINONE COMPOUNDS AS PARP7 INHIBITORS” (AZKARRA THERAPEUTICS, INC., priority 2022, published 2026).

Read-outs that look alike come from different tables or passages of the source.

Chain of PARP2 (Q9UGN5 whole entry): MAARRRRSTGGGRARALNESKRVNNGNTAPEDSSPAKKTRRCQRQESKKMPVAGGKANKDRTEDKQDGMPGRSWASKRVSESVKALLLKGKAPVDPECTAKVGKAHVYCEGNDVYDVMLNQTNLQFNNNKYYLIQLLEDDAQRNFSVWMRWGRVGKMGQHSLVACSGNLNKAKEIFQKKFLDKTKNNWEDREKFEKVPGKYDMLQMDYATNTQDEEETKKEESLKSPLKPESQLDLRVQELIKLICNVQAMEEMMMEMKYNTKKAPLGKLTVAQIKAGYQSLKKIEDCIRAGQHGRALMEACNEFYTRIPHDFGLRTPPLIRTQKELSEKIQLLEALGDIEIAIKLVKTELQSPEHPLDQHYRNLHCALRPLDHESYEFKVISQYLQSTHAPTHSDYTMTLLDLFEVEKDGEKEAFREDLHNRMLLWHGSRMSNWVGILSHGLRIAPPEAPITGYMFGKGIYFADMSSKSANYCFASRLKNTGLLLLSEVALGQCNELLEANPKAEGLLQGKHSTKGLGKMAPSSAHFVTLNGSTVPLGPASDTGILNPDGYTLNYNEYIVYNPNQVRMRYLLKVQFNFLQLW
Chain of PARP1 (P09874 whole entry, species assumed): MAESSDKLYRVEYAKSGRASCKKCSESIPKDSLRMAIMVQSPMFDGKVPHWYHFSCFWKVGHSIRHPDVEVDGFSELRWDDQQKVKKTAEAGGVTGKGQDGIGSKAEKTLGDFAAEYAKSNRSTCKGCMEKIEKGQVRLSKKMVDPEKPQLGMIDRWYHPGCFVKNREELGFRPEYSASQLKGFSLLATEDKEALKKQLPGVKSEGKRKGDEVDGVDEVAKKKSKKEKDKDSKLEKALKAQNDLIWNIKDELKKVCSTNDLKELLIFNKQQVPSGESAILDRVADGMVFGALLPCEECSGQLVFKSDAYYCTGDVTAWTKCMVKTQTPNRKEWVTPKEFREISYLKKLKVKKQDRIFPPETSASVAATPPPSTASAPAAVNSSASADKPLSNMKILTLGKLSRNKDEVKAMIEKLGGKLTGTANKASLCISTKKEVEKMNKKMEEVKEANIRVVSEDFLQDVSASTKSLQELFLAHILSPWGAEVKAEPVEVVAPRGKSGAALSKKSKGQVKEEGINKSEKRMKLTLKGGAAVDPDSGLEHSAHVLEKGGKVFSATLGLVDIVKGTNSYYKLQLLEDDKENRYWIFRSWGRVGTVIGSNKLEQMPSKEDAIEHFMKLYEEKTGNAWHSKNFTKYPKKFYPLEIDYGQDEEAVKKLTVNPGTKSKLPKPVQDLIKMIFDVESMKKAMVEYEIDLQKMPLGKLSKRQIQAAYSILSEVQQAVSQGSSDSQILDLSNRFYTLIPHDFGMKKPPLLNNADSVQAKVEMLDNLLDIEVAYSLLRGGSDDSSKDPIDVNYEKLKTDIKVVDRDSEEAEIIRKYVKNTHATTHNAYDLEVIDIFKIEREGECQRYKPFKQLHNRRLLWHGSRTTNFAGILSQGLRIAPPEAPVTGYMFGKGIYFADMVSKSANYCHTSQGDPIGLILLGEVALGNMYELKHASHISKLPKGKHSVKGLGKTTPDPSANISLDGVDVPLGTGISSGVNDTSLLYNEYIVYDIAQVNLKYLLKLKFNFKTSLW
Chain of His-GST-PARP7 (Q7Z3E1 whole entry): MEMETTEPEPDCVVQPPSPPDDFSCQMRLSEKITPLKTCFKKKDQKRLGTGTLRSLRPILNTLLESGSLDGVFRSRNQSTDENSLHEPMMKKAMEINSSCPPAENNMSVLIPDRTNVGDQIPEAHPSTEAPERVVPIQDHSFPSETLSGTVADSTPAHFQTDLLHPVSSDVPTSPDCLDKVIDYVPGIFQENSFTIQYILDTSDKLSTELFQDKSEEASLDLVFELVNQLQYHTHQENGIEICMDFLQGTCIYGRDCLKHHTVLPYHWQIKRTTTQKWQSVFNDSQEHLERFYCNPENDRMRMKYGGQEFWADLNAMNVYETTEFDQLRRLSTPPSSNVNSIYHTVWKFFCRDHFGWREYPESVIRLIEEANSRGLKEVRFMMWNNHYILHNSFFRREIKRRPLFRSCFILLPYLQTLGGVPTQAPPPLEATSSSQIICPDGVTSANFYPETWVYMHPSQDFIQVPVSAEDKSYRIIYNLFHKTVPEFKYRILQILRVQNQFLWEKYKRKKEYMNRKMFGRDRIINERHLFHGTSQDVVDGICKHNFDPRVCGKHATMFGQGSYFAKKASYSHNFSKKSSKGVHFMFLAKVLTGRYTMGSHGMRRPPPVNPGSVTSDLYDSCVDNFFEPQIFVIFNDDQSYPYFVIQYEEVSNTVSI

As to “6-(4-(5-((7-cyclobutoxy-4-oxo-3,4-dihydrophthalazin-1-yl)methyl)-2-fluorobenzoyl)piperazin-1-yl)-4-methoxynicotinonitrile [Example 137]”, the figures for the IC50 on PARP1, on PARP2 and at His-GST-PARP7 were above 2000 nM, 100 to 500 nM and below 50 nM, respectively. Also, the GI50 (commonly the concentration at which growth is held to half of that of the control) was below 100 nM in assay [1] and 1000 to 5000 nM in assay [2].

For `CC#Cc1ccc2c(=O)[nH]nc(CNC(C)CC(=O)N3CCN(c4ncc(C(F)(F)F)cn4)CC3)c2c1` (stereo not shown) [Example 191, 4-(((4-Oxo-4-(4-(5-(trifluoromethyl)pyrimidin-2-yl)piperazin-1-yl)butan-2-yl)amino)methyl)-6-(prop-1-yn-1-yl)phthalazin-1(2H)-one], the IC50 (commonly the concentration that gives 50% inhibition) is above 2000 nM at PARP1, above 2000 nM on PARP2 and below 50 nM on His-GST-PARP7. For the same compound, the GI50 in assay [1] (Homo sapiens, NCI-H1373, 144 h) is 100 to 1000 nM; in assay [2] (Homo sapiens, 144 h) it was 1000 to 5000 nM; in assay [3] (Mus musculus, CT26, 144 h), above 5000 nM.

`COc1cc2c(Cc3cccc(C(=O)N4CCN(c5ccc(C#N)cn5)CC4)c3)n[nH]c(=O)c2cc1F` [Example 82, 6-(4-(3-((6-Fluoro-7-methoxy-4-oxo-3,4-dihydrophthalazin-1-yl)methyl)benzoyl)piperazin-1-yl)nicotinonitrile]: the IC50 at PARP1, on PARP2 and at His-GST-PARP7 was below 50 nM in each case. Also, the GI50 was below 100 nM in assay [1] (Homo sapiens, NCI-H1373, 144 h); 100 to 1000 nM in assay [2] (Homo sapiens, 144 h); below 100 nM in assay [3] (Mus musculus, CT26, 144 h).

Regarding `CCc1ccc(NC(=O)Nc2c[nH]c3ccccc23)cc1` [Example H-151], the “PARP7 inhibitor-induced induction of IFN-β” value in the assay with secreted IFN-β is on record as “completely blocked”.

As for `CC#Cc1ccc2c(=O)[nH]nc(Cc3ccc(F)c(C(=O)N4CCn5c(nnc5C(F)(F)F)C4)c3)c2c1` [Example 65, 4-(4-fluoro-3-(3-(trifluoromethyl)-5,6,7,8-tetrahydro-[1,2,4]triazolo[4,3-a]pyrazine-7-carbonyl)benzyl)-6-(prop-1-yn-1-yl)phthalazin-1(2H)-one], the results for the IC50 at PARP1, at PARP2 and on His-GST-PARP7 were 50 to 100 nM, 50 to 100 nM and below 50 nM, respectively. Moreover, the GI50 in assay [1] (Homo sapiens, NCI-H1373, 144 h) is 100 to 1000 nM.

Regarding `N#Cc1ccc(N2CCN(C(=O)c3cccc(Cc4n[nH]c(=O)c5c(F)c(F)ccc45)c3)CC2)nc1` [Example 87, 6-(4-(3-((5,6-Difluoro-4-oxo-3,4-dihydrophthalazin-1-yl)methyl)benzoyl)piperazin-1-yl)nicotinonitrile], the IC50 on PARP1, on PARP2 and on His-GST-PARP7 was below 50 nM throughout. In addition, the GI50 in assay [1] (Homo sapiens, NCI-H1373, 144 h) was below 100 nM; in assay [2] (Homo sapiens, 144 h), 100 to 1000 nM; in assay [3] (Mus musculus, CT26, 144 h) it was 100 to 1000 nM.

For `N#Cc1ccc(N2CCN(C(=O)c3cccc(Cc4n[nH]c(=O)c5ccc(OC6CCC6)cc45)n3)CC2)nc1` [Example 176, 6-(4-(6-((7-Cyclobutoxy-4-oxo-3,4-dihydrophthalazin-1-yl)methyl)picolinoyl)piperazin-1-yl)nicotinonitrile], the IC50 on PARP1 was 50 to 100 nM; on PARP2, 100 to 500 nM; at His-GST-PARP7, below 50 nM. Also, the GI50 in assay [1] (Homo sapiens, NCI-H1373, 144 h) was 100 to 1000 nM; in assay [2] (Homo sapiens, 144 h) it was above 5000 nM; in assay [3] (Mus musculus, CT26, 144 h), 1000 to 5000 nM.

For `Cc1ccc2c(=O)c3cccc(CC(=O)O)c3oc2c1C` [DMXAA], in the assay on STING, pTBK1, pIRF3, the STING levels entry is “decreased substantially STING levels”; the “pTBK1 and pIRF3” value was “induced robustly both pTBK1 and pIRF3”.

Regarding `N#Cc1ccc(N2CCCC23CN(C(=O)c2cc(Cc4n[nH]c(=O)c5ccc(OC6CCC6)cc45)ccc2F)C3)nc1` [Example 149, 6-(2-(5-((7-cyclobutoxy-4-oxo-3,4-dihydrophthalazin-1-yl)methyl)-2-fluorobenzoyl)-2,5-diazaspiro[3.4]octan-5-yl)nicotinonitrile], the GI50 is above 5000 nM in assay [1] (Homo sapiens, NCI-H1373, 144 h); above 5000 nM in assay [2] (Homo sapiens, 144 h); above 5000 nM in assay [3] (Mus musculus, CT26, 144 h). Further, the IC50 at His-GST-PARP7 was in the range of 500 to 2000 nM.

For `CC#Cc1cc(C(F)(F)F)c2c(=O)[nH]nc(Cc3ccc(F)c(C(=O)N4CCN(c5ccc(C#N)cn5)CC4)c3)c2c1` [Example 84, 6-(4-(2-Fluoro-5-((4-oxo-7-(prop-1-yn-1-yl)-5-(trifluoromethyl)-3,4-dihydrophthalazin-1-yl)methyl)benzoyl)piperazin-1-yl)nicotinonitrile], the IC50 against PARP1 is 100 to 500 nM; at PARP2, 100 to 500 nM; at His-GST-PARP7 it was below 50 nM. Moreover, the GI50 in assay [1] (Homo sapiens, NCI-H1373, 144 h) was below 100 nM; in assay [2] (Homo sapiens, 144 h), 1000 to 5000 nM; in assay [3] (Mus musculus, CT26, 144 h), above 5000 nM.

In the case of `N#Cc1ccc(-c2nnc3n2CCN(C(=O)c2cc(Cc4n[nH]c(=O)c5ccc(OC6CCC6)cc45)ccc2F)C3)nc1` [Example 139, 6-(7-(5-((7-cyclobutoxy-4-oxo-3,4-dihydrophthalazin-1-yl)methyl)-2-fluorobenzoyl)-5,6,7,8-tetrahydro-[1,2,4]triazolo[4,3-a]pyrazin-3-yl)nicotinonitrile], the GI50 is 100 to 1000 nM in assay [1] (Homo sapiens, NCI-H1373, 144 h); 1000 to 5000 nM in assay [2] (Homo sapiens, 144 h); above 5000 nM in assay [3] (Mus musculus, CT26, 144 h). Besides, at His-GST-PARP7, the IC50 is below 50 nM.

`N#Cc1ccc(N2CCN(C(=O)c3ccnc(Cc4n[nH]c(=O)c5ccc(OC6CCC6)cc45)c3)CC2)nc1` [Example 180, 6-(4-(2-((7-Cyclobutoxy-4-oxo-3,4-dihydrophthalazin-1-yl)methyl)isonicotinoyl)piperazin-1-yl)nicotinonitrile]: the GI50 is below 100 nM in assay [1] (Homo sapiens, NCI-H1373, 144 h); above 5000 nM in assay [2] (Homo sapiens, 144 h); 1000 to 5000 nM in assay [3] (Mus musculus, CT26, 144 h). For the same compound, the IC50 at His-GST-PARP7 is below 50 nM.

With `CC#Cc1ccc2c(=O)[nH]nc(Cc3ccc(F)c(C(=O)N4CCN(c5ccc(C#N)cn5)CC4)c3)c2c1C` [Example 86, 6-(4-(2-Fluoro-5-((8-methyl-4-oxo-7-(prop-1-ynyl)-3,4-dihydrophthalazin-1-yl)methyl)benzoyl)piperazin-1-yl)nicotinonitrile], the IC50 on PARP1 is 50 to 100 nM; on PARP2, 500 to 2000 nM; on His-GST-PARP7, below 50 nM. Further, the GI50 in assay [1] (Homo sapiens, NCI-H1373, 144 h) is below 100 nM; in assay [2] (Homo sapiens, 144 h), 1000 to 5000 nM; in assay [3] (Mus musculus, CT26, 144 h), above 5000 nM.

Consider `C#CC(C)Oc1ccc2c(=O)[nH]nc(Cc3ccc(F)c(C(=O)N4CCN(c5ccc(C#N)cn5)CC4)c3)c2c1` (stereo not shown) [Example 8, 6-(4-(5-((7-(But-3-yn-2-yloxy)-4-oxo-3,4-dihydrophthalazin-1-yl)methyl)-2-fluorobenzoyl)piperazin-1-yl)nicotinonitrile], for which the IC50 on PARP1 was 100 to 500 nM; at PARP2 it was 100 to 500 nM; at His-GST-PARP7, below 50 nM. Further, the GI50 in assay [1] (Homo sapiens, NCI-H1373, 144 h) was below 100 nM; in assay [2] (Homo sapiens, 144 h) it was 1000 to 5000 nM; in assay [3] (Mus musculus, CT26, 144 h), below 100 nM.

For the compound `COc1cc2c(Cc3ccc(F)c(C(=O)N4CCN(c5ccc(C#N)cn5)CC4)c3)n[nH]c(=O)c2cn1` [Example 91, 6-(4-(2-fluoro-5-((7-methoxy-4-oxo-3,4-dihydropyrido[4,3-d]pyridazin-1-yl)methyl)benzoyl)piperazin-1-yl)nicotinonitrile], the GI50 in assay [1] (Homo sapiens, NCI-H1373, 144 h) is 1000 to 5000 nM; in assay [2] (Homo sapiens, 144 h), above 5000 nM; in assay [3] (Mus musculus, CT26, 144 h), above 5000 nM. Besides, the IC50 on His-GST-PARP7 was below 50 nM.

Take `O=C(c1cc(Cc2n[nH]c(=O)c3ccc(OC4CCC4)cc23)ccc1F)N1CCN(c2ccc(C(F)(F)F)nc2)CC1` [Example 159, 6-Cyclobutoxy-4-(4-fluoro-3-(4-(6-(trifluoromethyl)pyridin-3-yl)piperazine-1-carbonyl)benzyl)phthalazin-1(2H)-one]: the concentration for 50% growth inhibition (GI50) in assay [1] (Homo sapiens, NCI-H1373, 144 h) is 100 to 1000 nM; in assay [2] (Homo sapiens, 144 h), above 5000 nM; in assay [3] (Mus musculus, CT26, 144 h) it was above 5000 nM. In addition, the IC50 at His-GST-PARP7 is below 50 nM.

As for `N#Cc1ccc(N2CCN(C(=O)c3cc(Cc4n[nH]c(=O)c5ccc(S(=O)(=O)C6CCC6)cc45)ccc3F)CC2)nc1` [Example 53, 6-(4-(5-((7-(cyclobutylsulfonyl)-4-oxo-3,4-dihydrophthalazin-1-yl)methyl)-2-fluorobenzoyl)piperazin-1-yl)nicotinonitrile], the 50% growth inhibitory concentration (GI50) in assay [1] (Homo sapiens, NCI-H1373, 144 h) was above 5000 nM; in assay [2] (Homo sapiens, 144 h) it was above 5000 nM; in assay [3] (Mus musculus, CT26, 144 h) it was above 5000 nM. For the same compound, the IC50 at His-GST-PARP7 was 100 to 500 nM.

Turning to “6-Cyclobutoxy-4-(4-fluoro-3-(2-(hydroxymethyl)-4,5,6,7-tetrahydropyrazolo[1,5-a]pyrazine-5-carbonyl)benzyl)phthalazin-1(2H)-one [Example 168]”, the GI50 in assay [1], in assay [2] and in assay [3] was above 5000 nM each time. Further, at His-GST-PARP7, the IC50 was in the range of 100 to 500 nM.

`N#Cc1ccc(N2CCN(C(=O)c3cncc(Cc4n[nH]c(=O)c5ccc(OC6CCC6)cc45)c3)CC2)nc1` [Example 177, 6-(4-(5-((7-Cyclobutoxy-4-oxo-3,4-dihydrophthalazin-1-yl)methyl)nicotinoyl)piperazin-1-yl)nicotinonitrile]: the half-maximal inhibitory concentration (IC50) was 50 to 100 nM on PARP1, 100 to 500 nM on PARP2 and below 50 nM on His-GST-PARP7. Also, the 50% growth inhibitory concentration (GI50) is below 100 nM in assay [1] (Homo sapiens, NCI-H1373, 144 h); above 5000 nM in assay [2] (Homo sapiens, 144 h); above 5000 nM in assay [3] (Mus musculus, CT26, 144 h).
